Test results reported in patent US20170368082A1, “FORMULATIONS OF BRINCIDOFOVIR” (priority 2016, published 2017).
Read-outs that look alike come from different tables or passages of the source.

Tests used:
[1] = 28-day study toxicokinetics of brincidofovir and CDV in plasma; format: in vivo, Sprague-Dawley CD rats; conditions: plasma brincidofovir; for AUC(0-t) / Cmax: iv
Procedure: Blood samples were obtained for the determination of plasma concentrations of brincidofovir and the brincidofovir metabolite, cidofovir.
Approximately 0.40 mL of whole blood was obtained via the tail vein from each animal at each time point. Animals were not fasted prior to blood collection. Blood was collected into tubes containing K2EDTA anticoagulant and placed on wet ice in an upright position. Plasma was separated by centrifugation (for 10 minutes at approximately 2000 g, at approximately 2-8° C.). Approximately 0.150 mL of plasma was transferred into a single cryotube appropriately labeled as to study number, animal number, time point, date of sampling and sample type. Remaining plasma was transferred into a second cryotube and retained as a backup sample. Plasma was obtained and frozen at approximately −80±10° C. within approximately 2 hours after collection of each blood sample until analysis. Animals were euthanized (CO2 inhalation) after the final blood collection.
Bioanalytical samples were analyzed using a validated liquid chromatographic-triple quadruple mass spectrometric (LC-MS/MS) assay at Pyxant Labs.
Upon receipt of the plasma concentration data, noncompartmental toxicokinetic analysis was performed by Nuventra, Inc. Durham, N.C.

[2] = Stability study I (with dextrose): accelerated stability study; format: physicochemical
Procedure: Testing of the chemical degradation was performed in an accelerated stability study setup applying heat as an accelerator/stressor. An Arrhenius analysis was carried out providing an API half-life and a degradation rate at lower temperatures. Physical stability was evaluated at the desired storage temperature (2-8° C.); a benchmark/reference condition was likewise included in the study. The setup of the study is specified below:
Accelerated stability study: 50° C., 60° C., 65° C., 70° C., 75° C.,
Accelerated stability study: initial, 2, 6, 9, 14 days,
appearance, pH, c(BCV) recovery (HPLC), purity (HPLC), and liquid particle counting (physical degradation and benchmark stability study),
The stability testing results (accelerated conditions), i.e., the changes of pH and trends of brincidofovir recovery over the course of the stability study are summarized in Table 8 and Table 9 for the formulations at 10 mg/mL and 15 mg/mL respectively.

[3] = Comparison of toxicity of orally and intravenously administered brincidofovir (rat intestine); format: in vivo; conditions: for AUC / Cmax: rat, in vivo; for AUC: read-out: Exposure AUC; for Cmax: read-out: Exposure Cmax
Description: As shown in the figures, IV administration of brincidofovir is more well-tolerated in the intestine.

[4] = both sexes, Sprague-Dawley CD, rat, in vivo, 4 mg/kg, Day 1, 4 mg/kg, combined male and female, Mean
[5] = both sexes, Sprague-Dawley CD, rat, in vivo, 4 mg/kg, Day 1, 4 mg/kg, combined male and female, Median
[6] = both sexes, Sprague-Dawley CD, rat, in vivo, 15 mg/kg, Day 1, 15 mg/kg, combined male and female, Mean
[7] = both sexes, Sprague-Dawley CD, rat, in vivo, 15 mg/kg, Day 1, 15 mg/kg, combined male and female, Median
[8] = Day 29, 1 mg/kg, combined male and female rats, mean
[9] = Day 29, 4 mg/kg, combined male and female rats, mean
[10] = Day 29, 15 mg/kg, combined male and female rats, mean
[11] = Day 1, 1 mg/kg, combined male and female, Median
[12] = Day 1, 4 mg/kg, combined male and female, Mean
[13] = Day 1, 4 mg/kg, combined male and female, Median
[14] = Day 1, 15 mg/kg, combined male and female, Mean
[15] = Day 1, 15 mg/kg, combined male and female, Median
[16] = Sprague-Dawley CD, IV, repeat dose 1 mg/kg
[17] = Sprague-Dawley CD, IV, repeat dose 4 mg/kg
[18] = Sprague-Dawley CD, IV, repeat dose 15 mg/kg

Structure (SMILES): CCCCCCCCCCCCCCCCOCCCOP(=O)(O)CO[C@H](CO)Cn1ccc(N)nc1=O [Brincidofovir]
- concentration at 2 h ([1]; both sexes, Sprague-Dawley CD, rat, in vivo, 1 mg/kg, Day 1, 1 mg/kg, combined male and female, Mean, read-out: Clast): 0.209 µg/mL
- concentration at 8 hr ([1]; both sexes, Sprague-Dawley CD, rat, in vivo, 4 mg/kg, Day 29, 4 mg/kg, combined male and female rats, mean, read-out: Clast): 0.00206 µg/mL
- concentration at 8 h ([1]; both sexes, Sprague-Dawley CD, rat, in vivo, 4 mg/kg, Day 1, 4 mg/kg, combined male and female, Mean, read-out: Clast): 0.0022 µg/mL
- concentration at 8 h ([1]; both sexes, Sprague-Dawley CD, rat, in vivo, 4 mg/kg, Day 1, 4 mg/kg, combined male and female, Median, read-out: Clast): 0.00231 µg/mL
- concentration at 8 hr ([1]; both sexes, Sprague-Dawley CD, rat, in vivo, 15 mg/kg, Day 29, 15 mg/kg, combined male and female rats, mean, read-out: Clast): 0.0109 µg/mL
- concentration at 8 h ([1]; both sexes, Sprague-Dawley CD, rat, in vivo, 15 mg/kg, Day 1, 15 mg/kg, combined male and female, Mean, read-out: Clast): 0.00968 µg/mL
- concentration at 8 h ([1]; both sexes, Sprague-Dawley CD, rat, in vivo, 15 mg/kg, Day 1, 15 mg/kg, combined male and female, Median, read-out: Clast): 0.0103 µg/mL
- AUC(0-t) ([1]; both sexes, Sprague-Dawley CD, rat, in vivo, 1 mg/kg, Day 29, 1 mg/kg, combined male and female rats, mean, calculated using only 2 quantifiable data points): 0.41 µg·h/mL
- Cmax ([1]; both sexes, Sprague-Dawley CD, rat, in vivo, 1 mg/kg, Day 1, 1 mg/kg, combined male and female, Mean): 0.219 µg/mL
- AUC(0-t) ([1]; both sexes, Sprague-Dawley CD, rat, in vivo, 1 mg/kg, Day 1, 1 mg/kg, combined male and female, Mean, only 2 quantifiable data points): 0.319 µg·h/mL
- Cmax ([1]; both sexes, Sprague-Dawley CD, rat, in vivo, 1 mg/kg, Day 1, 1 mg/kg, combined male and female, Median): 0.21 µg/mL
- AUC(0-t) ([1]; both sexes, Sprague-Dawley CD, rat, in vivo, 1 mg/kg, Day 1, 1 mg/kg, combined male and female, Median, only 2 quantifiable data points): 0.305 µg·h/mL
- AUC(0-t) ([1]; both sexes, Sprague-Dawley CD, rat, in vivo, 4 mg/kg, Day 29, 4 mg/kg, combined male and female rats, mean): 2.76 µg·h/mL
- AUC(0-t) [1, 4]: 2.21 µg·h/mL
- Cmax [1, 4]: 1.01 µg/mL
- AUC(0-t) [1, 5]: 2.32 µg·h/mL
- Cmax [1, 5]: 1 µg/mL
- AUC(0-t) ([1]; both sexes, Sprague-Dawley CD, rat, in vivo, 15 mg/kg, Day 29, 15 mg/kg, combined male and female rats, mean): 9.89 µg·h/mL
- AUC(0-t) [1, 6]: 8.81 µg·h/mL
- Cmax [1, 6]: 3.8 µg/mL
- AUC(0-t) [1, 7]: 8.78 µg·h/mL
- Cmax [1, 7]: 3.76 µg/mL
- AUClast/Dose [1, 8]: 410 (hr*ng/mL)/(mg/kg)
- Cmax/Dose [1, 8]: 298 kg·ng/mL/mg
- Tlast ([1]; Day 29, 1 mg/kg, combined male and female rats, median): 2.00 h
- AUClast/Dose [1, 9]: 690 (hr*ng/mL)/(mg/kg)
- Cmax/Dose [1, 9]: 301 kg·ng/mL/mg
- Tlast ([1]; Day 29, 4 mg/kg, combined male and female rats, median): 8.00 h
- AUClast/Dose [1, 10]: 660 (hr*ng/mL)/(mg/kg)
- Cmax/Dose [1, 10]: 300 kg·ng/mL/mg
- Tlast ([1]; Day 29, 15 mg/kg, combined male and female rats, median): 8.00 h
- Cmax/Dose ([1]; Day 1, 1 mg/kg, combined male and female, Mean): 219 kg·ng/mL/mg
- AUClast/Dose ([1]; Day 1, 1 mg/kg, combined male and female, Mean, only 2 quantifiable data points): 319 (hr*ng/mL)/(mg/kg)
- Clast [1, 11]: 0.206 µg/mL
- Cmax/Dose [1, 11]: 210 kg·ng/mL/mg
- Tlast [1, 11]: 2.00 h
- AUClast/Dose ([1]; Day 1, 1 mg/kg, combined male and female, Median, only 2 quantifiable data points): 305 (hr*ng/mL)/(mg/kg)
- AUClast/Dose [1, 12]: 554 (hr*ng/mL)/(mg/kg)
- Cmax/Dose [1, 12]: 252 kg·ng/mL/mg
- AUClast/Dose [1, 13]: 579 (hr*ng/mL)/(mg/kg)
- Cmax/Dose [1, 13]: 250 kg·ng/mL/mg
- Tlast [1, 13]: 8.00 h
- AUClast/Dose [1, 14]: 588 (hr*ng/mL)/(mg/kg)
- Cmax/Dose [1, 14]: 254 kg·ng/mL/mg
- AUClast/Dose [1, 15]: 585 (hr*ng/mL)/(mg/kg)
- Cmax/Dose [1, 15]: 251 kg·ng/mL/mg
- Tlast [1, 15]: 8.00 h
- Degradation of brincidofovir over two weeks ([2]; 50 °C): 16%
- Degradation of brincidofovir over two weeks ([2]; 75 °C): 22%
- Impurities ([2]; 75 °C station, both starting concentrations): up to 16%
- Intestinal finding ([3]; IV administration): minimal single-cell effects
- Preliminary Findings ([3]; IV, repeat dose 1 mg/kg): No GI findings
- AUC [3, 16]: 0.41 µg·h/mL
- Cmax [3, 16]: 0.298 µg/mL
- AUC [3, 17]: 2.76 µg·h/mL
- Cmax [3, 17]: 1.2 µg/mL
- AUC [3, 18]: 9.89 µg·h/mL
- Cmax [3, 18]: 4.5 µg/mL
- Intestinal finding ([3]; oral administration): significant loss of epithelium in intestinal villi
- mortality ([3]; oral, single dose 100 mg/kg): 38% mortality
- mortality ([3]; oral, single dose 300 mg/kg): 100% mortality
- AUC ([3]; oral, single dose 30 mg/kg): 5.56 µg·h/mL
- Cmax ([3]; oral, single dose 30 mg/kg): 0.426 µg/mL
- AUC ([3]; oral, single dose 100 mg/kg): 13.6 µg·h/mL
- Cmax ([3]; oral, single dose 100 mg/kg): 1.09 µg/mL
- AUC ([3]; oral, single dose 300 mg/kg): 20.5 µg·h/mL
- Cmax ([3]; oral, single dose 300 mg/kg): 1.19 µg/mL
- AUC ([3]; oral, single dose 1000 mg/kg): 26.4 µg·h/mL
- Cmax ([3]; oral, single dose 1000 mg/kg): 1.38 µg/mL
